Source: patent publication US6362369B1, “Phthalic acid diamide derivatives fluorine-containing aniline compounds as starting material, agricultural and horticultural insecticides, and a method for application of the insecticides” (Nihon Nohyaku Co., Ltd., priority 1997, dated 2002)

Tests used:
[1] = test system: rice leafroller (Cnaphalocrocis medinalis); assay: Insecticidal effect on rice leafroller (Test Example 3); assay type: in vivo; conditions: rice leafroller third-instar larvae; rice lamina immersed, 500 ppm; four days after inoculation; 25° C., humidity 70%
Method in brief: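 Groups of 10 third-instar larvae, in triplicate, are placed on air-dried lamina resting on wet filter paper. Incubation runs four days at 25° C with 70% humidity before survivors and dead are tallied.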

[2] = test system: diamondback moth (Plutella xylostella); assay: Insecticidal effect on diamondback moth (Test Example 1); assay type: in vivo; conditions: diamondback moth; mortality judged by criterion of Test Example 1
Method in brief: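 Read-out was mortality from hatched-insect counts taken 6 days after the egg-bearing cabbage seedling was immersed, graded by set criteria. Seedlings were air-dried and kept at 25° C after treatment. Groups of 10 insects, in triplicate.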

SMILES | Insecticidal effect, Test Example 3 [1] | Insecticidal effect, Test Example 1 [2]
Cc1cc(C(F)(F)C(F)(F)F)ccc1NC(=O)c1cccc(I)c1C(=O)NC1CCCCC1 [compound 993] | A (100) | A (100)
CC(C)NC(=O)c1ccccc1C(=O)Nc1ccc(SC(F)(F)F)cc1 [compound 995] | A (100) | A (100)
CC(C)NC(=O)c1ccccc1C(=O)Nc1ccc([S+]([O-])C(F)(F)F)cc1 (stereo not shown) [compound 999] | A (100) | A (100)
CCC(C)NC(=O)c1cccc(I)c1C(=O)Nc1ccc(C(F)(F)C(F)(F)F)cc1C (stereo not shown) [compound 1008] | A (100) | A (100)
CCCC(C)NC(=O)c1cccc(I)c1C(=O)Nc1ccc(C(F)(F)C(F)(F)F)cc1C (stereo not shown) [compound 1010] | A (100) | A (100)
CCC(COC)NC(=O)c1cccc(I)c1C(=O)Nc1ccc(C(F)(F)C(F)(F)F)cc1C (stereo not shown) [compound 1014] | A (100) | A (100)
CC(C)(C)NC(=O)c1ccccc1C(=O)Nc1ccc(OC(F)(F)F)cc1Cl [compound 1021] | A (100) | A (100)
CCC(C)CNC(=O)c1c(I)cccc1C(=O)Nc1ccc(C(F)(F)C(F)(F)F)cc1C (stereo not shown) [compound 1026] | A (100) | A (100)
COCC(C)NC(=O)c1cccc(I)c1C(=O)Nc1ccc(C(F)(F)C(F)(F)F)cc1C (stereo not shown) [compound 1032] | A (100) | A (100)
CCN(CC)C(=O)c1cccc(I)c1C(=O)Nc1ccc(C(F)(F)C(F)(F)F)cc1C [compound 1036] | A (100) | A (100)
Cc1cc(C(F)(F)C(F)(F)F)ccc1NC(=O)c1cccc(I)c1C(=O)N(C)CC(C)C [compound 1043] | A (100) | A (100)
Cc1cc(C(F)(F)C(F)(F)F)ccc1NC(=O)c1cccc(I)c1C(=O)N1CCCC1 [compound 1047] | A (100) | A (100)
CCNC(=O)c1cccc(I)c1C(=O)Nc1ccc(OC(F)(F)C(F)F)cc1C [compound 1057] | A (100) | A (100)
CCCNC(=O)c1cccc(I)c1C(=O)Nc1ccc(C(F)(C(F)(F)F)C(F)(F)F)cc1C [compound 1076] | A (100) | A (100)
CC(C)NC(=O)c1ccccc1C(=O)Nc1ccc(S(=O)(=O)C(F)(F)F)cc1 [compound 1077] | A (100) | A (100)
Cc1cc(OC(F)(F)C(F)(F)c2ccccc2)ccc1NC(=O)c1ccccc1C(=O)NC(C)C [compound 1086] | A (100) | A (100)
Cc1cc(OC(F)(F)C(F)(F)c2ccccc2)ccc1NC(=O)c1cccc(I)c1C(=O)NC(C)C [compound 1088] | A (100) | A (100)
Cc1cc(OC(F)(F)C(F)(F)c2ccccc2)ccc1NC(=O)c1cccc([N+](=O)[O-])c1C(=O)NC(C)C [compound 1089] | A (100) | A (100)
CC(C)NC(=O)c1ccccc1C(=O)Nc1ccc2c(c1)OC(F)(F)O2 [compound 1099] | A (100) | A (100)

SMILES | Insecticidal effect, Test Example 3 [1] | Insecticidal effect, Test Example 1 [2]
CC(C)(C)NC(=O)c1ccccc1C(=O)Nc1ccc2c(c1)OC(F)(F)O2 [compound 1103] | A (100) | A (100)
CC(C)NC(=O)c1ccccc1C(=O)Nc1ccc(SC(F)(F)Br)cc1 [compound 1106] | A (100) | A (100)
CC(C)NC(=O)c1ccccc1C(=O)Nc1ccc([S+]([O-])C(F)(F)Br)cc1 (stereo not shown) [compound 1107] | A (100) | A (100)
CC(C)NC(=O)c1c(C(=O)Nc2ccc(SC(F)(F)Br)cc2)cccc1[N+](=O)[O-] [compound 1108] | A (100) | A (100)
CC(C)NC(=O)c1c(C(=O)Nc2ccc([S+]([O-])C(F)(F)Br)cc2)cccc1[N+](=O)[O-] (stereo not shown) [compound 1109] | A (100) | A (100)
CC(C)NC(=O)c1c(Cl)cccc1C(=O)Nc1ccc([S+]([O-])C(F)(F)Br)cc1 (stereo not shown) [compound 1111] | A (100) | A (100)
CCN(CC)C(=O)c1c(C(=O)Nc2ccc(OC(F)(F)C(F)F)cc2C)cccc1[N+](=O)[O-] [compound 1132] | A (100) | A (100)
CCN(CC)C(=O)c1c(C(=O)Nc2ccc(C(F)(F)C(F)(F)F)cc2Cl)cccc1[N+](=O)[O-] [compound 1133] | A (100) | A (100)
CCN(CC)C(=O)c1c(C(=O)Nc2ccc(C(F)(F)C(F)(F)F)cc2F)cccc1[N+](=O)[O-] [compound 1134] | A (100) | A (100)
CCN(CC)C(=O)c1c(C(=O)Nc2ccc(Cl)cc2C)cccc1[N+](=O)[O-] [compound 1135] | A (100) | A (100)
CCN(CC)C(=O)c1c(C(=O)Nc2ccc(OC(F)(F)F)cc2)cccc1[N+](=O)[O-] [compound 1136] | A (100) | A (100)
CC(C)NC(=O)c1ccccc1C(=O)Nc1ccc2c(c1)OC(F)C(F)(F)O2 (stereo not shown) [compound 1145] | A (100) | A (100)
CC(C)(C)NC(=O)c1ccccc1C(=O)Nc1ccc2c(c1)OC(F)C(F)(F)O2 (stereo not shown) [compound 1149] | A (100) | A (100)
CCC(C)(C)NC(=O)c1c(F)cccc1C(=O)Nc1ccc(OC(F)F)cc1C [compound 1155] | A (100) | A (100)
CCCN(CCC)C(=O)c1c(I)cccc1C(=O)Nc1ccc(OC(F)F)cc1C [compound 1157] | A (100) | A (100)
Cc1cc(OC(F)F)ccc1NC(=O)c1cc(I)ccc1C(=O)NC(C)C [compound 1205] | A (100) | A (100)
CCc1cc(OC(F)(F)F)ccc1NC(=O)c1ccccc1C(=O)NC(C)C [compound 1208] | A (100) | A (100)
Cc1cc(C(F)(F)C(F)(F)F)ccc1NC(=O)c1ccc(Br)c(Br)c1C(=O)NC(C)C [compound 1266] | A (100) | A (100)
CCN(CC)C(=O)c1cc(Cl)cc(I)c1C(=O)Nc1ccc(C(F)(F)C(F)(F)F)cc1C [compound 1281] | A (100) | A (100)
